Our source for the IC50 values is PubChem BioAssay AID624167 (Sanford-Burnham Center for Chemical Genomics, 2012).

Assay [1] has as its system PEG-3. As to the kind of experiment: inhibition of PEG-3 promoter-driven reporter – cell-based, HeLa, luciferase, CREF/GAPDH counter-screen panel, dose response (AID 624167). Conditions: HeLa PEG-Prom luciferase reporter, overnight, CREF/GAPDH counter-screens.
Assay [2] has as its target PEG-3 (UniProt Q6IN02). The description is as above. The note with it: HeLa PEG-Prom luciferase reporter, overnight, CREF/GAPDH counter-screens, mean of runs.
[3] abbreviates: run 1, dose range 1, individual replicate IC50 per panel.
[4] abbreviates: run 2, dose range 1, individual replicate IC50 per panel.

The structures appear in SMILES notation. Calls of active or inactive are those of the source.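 The calls were made as follows: active = mean IC50 for reducing PEG3 promoter reporter signal at or below a set limit, with IC50 above the limit in both counter screens; inactive = the rest, including counter screen hits.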

Sequence of PEG-3 (UniProt Q6IN02) (Q6IN02 whole entry, looked up): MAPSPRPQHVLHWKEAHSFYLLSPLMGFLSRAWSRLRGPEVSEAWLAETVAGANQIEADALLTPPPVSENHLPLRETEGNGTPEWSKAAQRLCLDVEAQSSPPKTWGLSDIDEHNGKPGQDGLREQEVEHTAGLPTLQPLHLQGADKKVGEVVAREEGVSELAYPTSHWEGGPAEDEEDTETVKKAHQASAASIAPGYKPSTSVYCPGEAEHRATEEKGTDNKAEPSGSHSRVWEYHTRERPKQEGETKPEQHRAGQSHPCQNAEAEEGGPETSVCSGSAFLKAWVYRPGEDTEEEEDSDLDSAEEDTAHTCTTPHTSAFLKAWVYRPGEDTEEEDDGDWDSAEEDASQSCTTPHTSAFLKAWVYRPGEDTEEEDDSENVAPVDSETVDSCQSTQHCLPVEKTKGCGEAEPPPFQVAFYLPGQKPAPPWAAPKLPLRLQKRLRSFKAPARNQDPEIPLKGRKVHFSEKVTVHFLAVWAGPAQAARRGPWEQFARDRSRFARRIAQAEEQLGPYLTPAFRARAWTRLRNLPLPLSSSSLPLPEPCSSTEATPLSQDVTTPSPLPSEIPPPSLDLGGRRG

For `CCn1c2ccccc2c2cc(NC(=O)C(C)OC(=O)c3ccc(NC(=O)CC#N)cc3)ccc21` (centres undefined), the results for the concentration for half-maximal inhibition (IC50) in the assay with PEG-3 [1] (setting [3]) and with PEG-3 [1] (setting [4]) were 41.9 µM and 39.1 µM, respectively. Besides, the IC50 result on PEG-3 [2] was “inactive”.

Regarding `Cc1nn(-c2ccccc2)c2c1C(c1ccc([N+](=O)[O-])cc1)N1C(=N2)C(=O)Nc2ccccc21` (centres undefined), the values for the IC50 in the assay with PEG-3 [1] (setting [3]), with PEG-3 [1] (setting [4]) and at PEG-3 [2] were > 100 µM, > 100 µM and > 100 µM (inactive), respectively.

For the compound `COc1ccc(OC)c(Cc2cnc3nc(N)nc(N)c3c2C)c1`, the IC50 with PEG-3 [1] (setting [3]) was 48.7 µM; in the assay on PEG-3 [1] (setting [4]) it was 1.36 µM. Moreover, the IC50 entry on PEG-3 [2] is “inactive”.

With `COc1cc2c(cc1OC)CN(c1nc(-c3cccnc3)nc3ccccc13)CC2`, the figures for the IC50 in the assay with PEG-3 [1] (setting [3]) and with PEG-3 [1] (setting [4]) were 31.3 µM and 63.8 µM, respectively. The IC50 result at PEG-3 [2] was “inactive”.

On to `CN(C)CCCN1c2ccccc2Sc2ccc3ccccc3c21`, for which the half-maximal inhibitory concentration (IC50) was 17.7 µM with PEG-3 [1] (setting [3]), 16 µM in the assay on PEG-3 [1] (setting [4]) and 16.9 µM on PEG-3 [2].

Take `CCCCN(C)CCNC(=O)c1cc(-c2cccnc2)nc2ccc(S(=O)(=O)N3CCC(C)CC3)cc12`: the IC50 with PEG-3 [1] (setting [3]) is 10.3 µM; in the assay on PEG-3 [1] (setting [4]), 15.4 µM; at PEG-3 [2], 12.9 µM.

With `O=C1NC2C(=CC(O)C(O)C2O)c2cc3c(c(O)c21)OCO3` (centres undefined), the half-inhibitory concentration (IC50) with PEG-3 [1] (setting [3]) is 0.293 µM; in the assay with PEG-3 [1] (setting [4]), < 0.2 µM; on PEG-3 [2], 0.293 µM.

On to `O=Cc1cn(Cc2cccc(F)c2)c2ccccc12`, for which the results for the concentration for half-maximal inhibition (IC50) with PEG-3 [1] (setting [3]) and with PEG-3 [1] (setting [4]) were 22.6 µM and 38.8 µM, respectively. Besides, on PEG-3 [2], the IC50 entry is “inactive”.

As for `COc1cc(-c2cc(C(=O)N(C)Cc3ccccc3)c3ccccc3n2)cc(OC)c1OC`, the IC50 in the assay on PEG-3 [1] (setting [3]) is 69.3 µM; in the assay on PEG-3 [1] (setting [4]) it was 72.2 µM. Besides, the IC50 result at PEG-3 [2] is “inactive”.

As to `COc1nc(N)c(C#N)c(-c2ccc(N(C)CCC#N)cc2)c1C#N`, the values for the IC50 in the assay on PEG-3 [1] (setting [3]) and with PEG-3 [1] (setting [4]) were 6.32 µM and 35.8 µM, respectively. Besides, at PEG-3 [2], the IC50 entry was “inactive”.

For the compound `Cc1cc(C)c2nc(N(CCCN(C)C)C(=O)c3ccc(S(=O)(=O)N4CCCCCC4)cc3)sc2c1`, the IC50 in the assay on PEG-3 [1] (setting [3]) is 24.3 µM; in the assay with PEG-3 [1] (setting [4]), 15.6 µM; on PEG-3 [2], 20 µM.

In the case of `CCC(C)NCCOCCOc1ccc(Cl)c2ccccc12` (centres undefined), the IC50 with PEG-3 [1] (setting [3]) is 18.6 µM; in the assay on PEG-3 [1] (setting [4]), 17.5 µM; at PEG-3 [2] it was 18.1 µM.

For `CCN(C(=O)CSc1nc2n[nH]c(C)c2c(=N)n1-c1ccc(Cl)c(C)c1)c1cccc(C)c1`, the IC50 was 19.1 µM in the assay on PEG-3 [1] (setting [3]), 20.8 µM with PEG-3 [1] (setting [4]) and 20 µM at PEG-3 [2].

With `COc1ccc(-c2cc(C(=O)N3CCN(c4ccccc4F)CC3)c3ccccc3n2)c(OC)c1`, the IC50 in the assay with PEG-3 [1] (setting [3]) was 9.03 µM; with PEG-3 [1] (setting [4]), 13 µM; on PEG-3 [2], 11 µM.

On to `CCN(CC)C(=O)Cn1cc(/C=C2\C(=O)NC(=O)N(c3ccccc3F)C2=O)c2ccccc21`, for which the IC50 in the assay on PEG-3 [1] (setting [3]) is 14.9 µM; in the assay on PEG-3 [1] (setting [4]) it was 13.1 µM; on PEG-3 [2], 14 µM.

Regarding `CCc1nccn1C(=O)c1cnn2c(C(F)F)cc(-c3ccc(C)cc3)nc12`, the IC50 was 18.7 µM in the assay with PEG-3 [1] (setting [3]), 15.6 µM with PEG-3 [1] (setting [4]) and 17.2 µM on PEG-3 [2].

In the case of `Cc1cc(/C=c2/sc3nc4ccccc4n3c2=O)c(C)n1-c1ccccn1`, the half-inhibitory concentration (IC50) in the assay with PEG-3 [1] (setting [3]) came out at 21.7 µM; in the assay on PEG-3 [1] (setting [4]), 30.9 µM. Besides, the IC50 result at PEG-3 [2] is “inactive”.

Regarding `O=C(Nc1cccc(-c2cccc(Cl)c2)c1)C1CCN(C2CCC2)CC1`, the IC50 with PEG-3 [1] (setting [3]) was 18.9 µM; in the assay with PEG-3 [1] (setting [4]), 14.9 µM; at PEG-3 [2], 16.9 µM.

Turning to `Cc1c(C(=O)Nc2ccc(S(=O)(=O)N(C)C3CCN(C)CC3)cc2)oc2c(Cl)cccc12`, the figures for the IC50 with PEG-3 [1] (setting [3]), in the assay with PEG-3 [1] (setting [4]) and at PEG-3 [2] were 16.5 µM, 9.1 µM and 12.8 µM, respectively.

On to `Cc1c(CCOC(=O)C23CC4CC(CC(C)(C4)C2)C3)sc[n+]1CC(=O)c1ccccc1`, for which the results for the IC50 in the assay on PEG-3 [1] (setting [3]) and in the assay with PEG-3 [1] (setting [4]) were 21.8 µM and 21.7 µM, respectively. In addition, at PEG-3 [2], the IC50 entry was “inactive”.

As for `CC(C)CC(N)c1csc(Nc2ccc(C(=O)N(C)Cc3ccccc3)cn2)n1` (centres undefined), the IC50 in the assay on PEG-3 [1] (setting [3]) was 14.2 µM; in the assay on PEG-3 [1] (setting [4]), 29 µM. For the same compound, at PEG-3 [2], the IC50 entry was “inactive”.

As to `Cc1[nH]c2ccc(OC(F)(F)F)cc2c1CCNCc1cccc([N+](=O)[O-])c1`, the IC50 in the assay on PEG-3 [1] (setting [3]) is 25.1 µM; with PEG-3 [1] (setting [4]), > 100 µM. Also, the IC50 result at PEG-3 [2] is “inactive”.

On to `NCCc1c(-c2ccccc2)n(-c2ccccc2)c2ccccc12`, for which the IC50 with PEG-3 [1] (setting [3]) is 17.4 µM; in the assay on PEG-3 [1] (setting [4]) it was 8.4 µM; on PEG-3 [2], 12.9 µM.

In the case of `O=C(Nc1ccccc1)c1nc[nH]c1C(=O)NCCCCNC(=O)c1[nH]cnc1C(=O)Nc1ccccc1`, the IC50 was 17.7 µM with PEG-3 [1] (setting [3]), 4.92 µM in the assay with PEG-3 [1] (setting [4]) and 11.3 µM at PEG-3 [2].

For the compound `O=C1c2ccccc2S(=O)(=O)N1Cc1nc2ccccc2s1`, the IC50 with PEG-3 [1] (setting [3]) is 8.32 µM; in the assay with PEG-3 [1] (setting [4]) it was 14.3 µM; at PEG-3 [2] it was 11.3 µM.

For the compound `COc1ccc(-n2ncc3c(N(C)C4CCCCC4)ncnc32)cc1`, the 50% inhibitory concentration (IC50) with PEG-3 [1] (setting [3]) amounted to 26.5 µM; in the assay on PEG-3 [1] (setting [4]) it was 44 µM. In addition, the IC50 result at PEG-3 [2] is “inactive”.

As for `COc1cc(CNC(C)(C)CO)cc(Br)c1OCc1ccc(Cl)cc1`, the values for the IC50 in the assay on PEG-3 [1] (setting [3]), in the assay on PEG-3 [1] (setting [4]) and on PEG-3 [2] were 20.6 µM, 12.6 µM and 16.6 µM, respectively.

As for `Cc1c(C#N)c(N)nc2c3c(sc12)NC(=O)CC3c1ccc(Cl)cc1` (centres undefined), the figures for the concentration for half-maximal inhibition (IC50) in the assay on PEG-3 [1] (setting [3]), with PEG-3 [1] (setting [4]) and on PEG-3 [2] were 17.4 µM, 11 µM and 14.2 µM, respectively.

As for `O=c1c2ccccc2nc(CSc2ncnc3nc[nH]c23)n1-c1ccc(Cl)c(Cl)c1`, the IC50 in the assay with PEG-3 [1] (setting [3]) was 8.77 µM; in the assay on PEG-3 [1] (setting [4]), > 100 µM. Besides, on PEG-3 [2], the IC50 result was “inactive”.

In the case of `CN1CCC(N(C)C(=O)/C=C/c2cn(-c3ccccc3)nc2-c2cccs2)CC1`, the 50% inhibitory concentration (IC50) is 18.4 µM in the assay with PEG-3 [1] (setting [3]), 19.7 µM in the assay with PEG-3 [1] (setting [4]) and 19 µM on PEG-3 [2].

As to `Cc1nc(N2CCN(S(=O)(=O)c3ccccc3C#N)CC2)c2c(-c3ccccc3)csc2n1`, the IC50 with PEG-3 [1] (setting [3]) was > 100 µM; in the assay on PEG-3 [1] (setting [4]), > 100 µM; at PEG-3 [2], > 100 µM (inactive).

On to `CCN(Cc1ccccc1)S(=O)(=O)c1ccc(C(=O)N(CCCN(C)C)c2nc3cc4c(cc3s2)OCO4)cc1`, for which the figures for the IC50 in the assay with PEG-3 [1] (setting [3]), in the assay with PEG-3 [1] (setting [4]) and on PEG-3 [2] were 19.6 µM, 16 µM and 17.8 µM, respectively.

Consider `Cc1cccc(CN2C(=O)/C(=C\c3ccc(C(=O)NCCN4CCOCC4)cc3)Sc3ccccc32)c1`, for which the IC50 in the assay on PEG-3 [1] (setting [3]) was 18.2 µM; in the assay with PEG-3 [1] (setting [4]), 22.1 µM. In addition, the IC50 entry on PEG-3 [2] was “inactive”.

Regarding `Cc1ccc(C(=O)N(CCCN(C)C)c2nc3ccc(Cl)cc3s2)cc1C`, the figures for the IC50 in the assay on PEG-3 [1] (setting [3]), in the assay with PEG-3 [1] (setting [4]) and at PEG-3 [2] were 18.9 µM, 18 µM and 18.4 µM, respectively.

With `CCOc1cc(/C=N/N=C(N)N)ccc1OCc1ccc(Cl)cc1`, the IC50 with PEG-3 [1] (setting [3]) was 16.9 µM; in the assay with PEG-3 [1] (setting [4]), 9.05 µM; on PEG-3 [2], 13 µM.

`COc1ccc(CNCCc2c(C)[nH]c3ccc(OC(F)(F)F)cc23)c(OC)c1`: the IC50 in the assay on PEG-3 [1] (setting [3]) was 13.6 µM; in the assay with PEG-3 [1] (setting [4]) it was 13.1 µM; on PEG-3 [2] it was 13.4 µM.

Regarding `CC(Cc1ccccc1)NCCC(c1ccccc1)c1ccccc1` (centres undefined), the IC50 was 19.9 µM with PEG-3 [1] (setting [3]), 19.1 µM with PEG-3 [1] (setting [4]) and 19.5 µM at PEG-3 [2].

Turning to `COc1ccc(-c2cc(C(=O)Nc3ccccc3N3CCOCC3)c3ccccc3n2)cc1OC`, the IC50 with PEG-3 [1] (setting [3]) is > 100 µM; in the assay with PEG-3 [1] (setting [4]), > 100 µM; at PEG-3 [2] it was > 100 µM (inactive).
